Assay results reported in ChEMBL document CHEMBL4382234, “Fluoroquinolone-isatin hybrids and their biological activities” (Eur J Med Chem, 2019).
≈ marks a conversion by molar mass, not a printed value.

How the values were obtained:
Assay type in all cases: functional
[1] = tested on: Mycobacterium tuberculosis; experiment: Antimycobacterial activity against multidrug-resistant Mycobacterium tuberculosis 09710 by rapid direct susceptibility test
[2] = tested on: Mycobacterium tuberculosis; experiment: Antimycobacterial activity against multidrug-resistant Mycobacterium tuberculosis after 3 to 7 days by rapid direct susceptibility test
[3] = tested on: Mycobacterium tuberculosis; experiment: Antimycobacterial activity against isoniazid/rifampicin/ethambutol-resistant Mycobacterium tuberculosis after 3 to 7 days by rapid direct susceptibility test
[4] = tested on: Mycobacterium tuberculosis; experiment: Potency index, ratio of rifampicin MIC to test compound MIC for multidrug-resistant Mycobacterium tuberculosis
[5] = tested on: Mycobacterium tuberculosis; experiment: Potency index, ratio of isoniazid MIC to test compound MIC for multidrug-resistant Mycobacterium tuberculosis
[6] = tested on: Mycobacterium tuberculosis; experiment: Potency index, ratio of gatifloxacin MIC to test compound MIC for multidrug-resistant Mycobacterium tuberculosis

Compound `CCO/N=C1\C(=O)N(CCN2CCC[C@H]3CN(c4c(F)cc5c(=O)c(C(=O)O)cn(C6CC6)c5c4OC)C[C@H]32)c2ccc(F)cc21` has an MIC [1] of 0.39 to 16 µg/mL (≈ 0.614 to 25.2 µM).
`COc1c(N2C[C@@H]3CCCN(CN4C(=O)/C(=N\NC(N)=S)c5cc(F)ccc54)[C@@H]3C2)c(F)cc2c(=O)c(C(=O)O)cn(C3CC3)c12` gave an MIC [1] of 0.39 to 16 µg/mL (≈ 0.598 to 24.6 µM).
Work on `CO/N=C1\C(=O)N(CN2CCC[C@H]3CN(c4c(F)cc5c(=O)c(C(=O)O)cn(C6CC6)c5c4OC)C[C@H]32)c2ccc(F)cc21` yielded an MIC [1] of 0.39 to 16 µg/mL (≈ 0.642 to 26.3 µM).
With `COc1c(N2C[C@@H]3CCCN(CCN4C(=O)/C(=N\NC(N)=O)c5ccccc54)[C@@H]3C2)c(F)cc2c(=O)c(C(=O)O)cn(C3CC3)c12` the MIC [1] was 0.39 to 16 µg/mL (≈ 0.617 to 25.3 µM).
In the case of `CO/N=C1/C(=O)N(CCn2cc(CN3CCC[C@H]4CN(c5c(F)cc6c(=O)c(C(=O)O)cn(C7CC7)c6c5OC)C[C@H]43)nn2)c2ccccc21`, the MIC [2] is reported as 0.1 to 0.78 µg/mL (≈ 0.146 to 1.14 µM).
`NC(=S)N/N=C1/C(=O)N(CCCN2CCN(c3cc4c(cc3F)c(=O)c(C(=O)O)cn4C3CC3)CC2)c2ccccc21` gave an MIC [3] of 0.1 to 64 µg/mL (≈ 0.169 to 108 µM).
`CO/N=C1\C(=O)N(CCN2CCC[C@H]3CN(c4c(F)cc5c(=O)c(C(=O)O)cn(C6CC6)c5c4OC)C[C@H]32)c2cc(F)ccc21` was tested, and the MIC [1] was 0.39 to 16 µg/mL (≈ 0.627 to 25.7 µM).
In the case of `CCO/N=C1/C(=O)N(CCn2cc(CN3CCC[C@H]4CN(c5c(F)cc6c(=O)c(C(=O)O)cn(C7CC7)c6c5OC)C[C@H]43)nn2)c2ccccc21`, the MIC [2] is reported as 0.1 to 0.78 µg/mL (≈ 0.143 to 1.12 µM).
In the case of `CCO/N=C1\C(=O)N(CCN2CCC[C@H]3CN(c4c(F)cc5c(=O)c(C(=O)O)cn(C6CC6)c5c4OC)C[C@H]32)c2ccccc21`, the MIC [1] is reported as 0.39 to 16 µg/mL (≈ 0.631 to 25.9 µM).
`COc1c(N2C[C@@H]3CCCN(Cc4cn(CCN5C(=O)/C(=N/NC(N)=O)c6ccccc65)nn4)[C@@H]3C2)c(F)cc2c(=O)c(C(=O)O)cn(C3CC3)c12` was tested, and the MIC [2] was 0.1 to 0.78 µg/mL (≈ 0.14 to 1.09 µM).
`COc1c(N2C[C@@H]3CCCN(CN4C(=O)C(=O)c5cc(F)ccc54)[C@@H]3C2)c(F)cc2c(=O)c(C(=O)O)cn(C3CC3)c12` showed an MIC [1] of 0.39 to 16 µg/mL (≈ 0.674 to 27.7 µM).
In the case of `COc1c(N2C[C@@H]3CCCN(CCN4C(=O)/C(=N\NC(N)=S)c5cc(F)ccc54)[C@@H]3C2)c(F)cc2c(=O)c(C(=O)O)cn(C3CC3)c12`, the MIC [1] is reported as 0.39 to 16 µg/mL (≈ 0.586 to 24 µM).
Compound `COc1c(N2C[C@@H]3CCCN(Cc4cn(CCN5C(=O)C(=O)c6ccccc65)nn4)[C@@H]3C2)c(F)cc2c(=O)c(C(=O)O)cn(C3CC3)c12` has an MIC [2] of 0.1 to 0.78 µg/mL (≈ 0.153 to 1.19 µM).
With `O=C(O)c1cn(C2CC2)c2cc(N3CCN(CCCN4C(=O)/C(=N/O)c5ccccc54)CC3)c(F)cc2c1=O` the MIC [3] was 0.1 to 64 µg/mL (≈ 0.187 to 120 µM).
With `CCO/N=C1\C(=O)N(CN2CCC[C@H]3CN(c4c(F)cc5c(=O)c(C(=O)O)cn(C6CC6)c5c4OC)C[C@H]32)c2ccc(F)cc21` the MIC [1] was 0.39 to 16 µg/mL (≈ 0.627 to 25.7 µM).
Compound `COc1c(N2C[C@@H]3CCCN(CN4C(=O)/C(=N\NC(N)=O)c5cc(F)ccc54)[C@@H]3C2)c(F)cc2c(=O)c(C(=O)O)cn(C3CC3)c12` has an MIC [1] of 0.39 to 16 µg/mL (≈ 0.614 to 25.2 µM).
Compound `COc1c(N2C[C@@H]3CCCN(CCN4C(=O)/C(=N\NC(N)=O)c5cc(F)ccc54)[C@@H]3C2)c(F)cc2c(=O)c(C(=O)O)cn(C3CC3)c12` has an MIC [1] of 0.39 to 16 µg/mL (≈ 0.6 to 24.6 µM).
For `COc1c(N2C[C@@H]3CCCN(CCN4C(=O)C(=O)c5cc(F)ccc54)[C@@H]3C2)c(F)cc2c(=O)c(C(=O)O)cn(C3CC3)c12`, the MIC [1] was 0.39 to 16 µg/mL (≈ 0.658 to 27 µM).
In the case of `COc1c(N2C[C@@H]3CCCN(CN4C(=O)/C(=N\O)c5ccccc54)[C@@H]3C2)c(F)cc2c(=O)c(C(=O)O)cn(C3CC3)c12`, the MIC [1] is reported as 0.39 to 16 µg/mL (≈ 0.678 to 27.8 µM).
With `COc1c(N2C[C@@H]3CCCN(CN4C(=O)C(=O)c5ccccc54)[C@@H]3C2)c(F)cc2c(=O)c(C(=O)O)cn(C3CC3)c12` the MIC [1] was 0.39 to 16 µg/mL (≈ 0.696 to 28.5 µM).
For `COc1c(N2C[C@@H]3CCCN(CCN4C(=O)/C(=N\NC(N)=S)c5ccccc54)[C@@H]3C2)c(F)cc2c(=O)c(C(=O)O)cn(C3CC3)c12`, the MIC [1] was 0.39 to 16 µg/mL (≈ 0.602 to 24.7 µM).
`Cc1ccc2c(c1)/C(=N\NC(N)=O)C(=O)N2CCCN1CCN(c2cc3c(cc2F)c(=O)c(C(=O)O)cn3C2CC2)CC1` was tested, and the MIC [3] was 0.1 to 64 µg/mL (≈ 0.17 to 109 µM).
Work on `COc1c(N2C[C@@H]3CCCN(Cc4cn(CCN5C(=O)/C(=N/O)c6ccccc65)nn4)[C@@H]3C2)c(F)cc2c(=O)c(C(=O)O)cn(C3CC3)c12` yielded an MIC [2] of 0.1 to 0.78 µg/mL (≈ 0.149 to 1.16 µM).
Work on `COc1c(N2C[C@@H]3CCCN(CCN4C(=O)C(=O)c5ccccc54)[C@@H]3C2)c(F)cc2c(=O)c(C(=O)O)cn(C3CC3)c12` yielded an MIC [1] of 0.39 to 16 µg/mL (≈ 0.679 to 27.8 µM).
`COc1c(N2C[C@@H]3CCCN(Cc4cn(CCN5C(=O)C(=O)c6cc(Br)ccc65)nn4)[C@@H]3C2)c(F)cc2c(=O)c(C(=O)O)cn(C3CC3)c12` was tested, and the MIC [2] was 0.1 to 0.78 µg/mL (≈ 0.136 to 1.06 µM).
`CO/N=C1\C(=O)N(CN2CCC[C@H]3CN(c4c(F)cc5c(=O)c(C(=O)O)cn(C6CC6)c5c4OC)C[C@H]32)c2ccccc21` gave an MIC [1] of 0.39 to 16 µg/mL (≈ 0.661 to 27.1 µM).
`COc1c(N2C[C@@H]3CCCN(CN4C(=O)/C(=N\NC(N)=S)c5ccccc54)[C@@H]3C2)c(F)cc2c(=O)c(C(=O)O)cn(C3CC3)c12` showed an MIC [1] of 0.39 to 16 µg/mL (≈ 0.615 to 25.2 µM).
`CO/N=C1/C(=O)N(CCn2cc(CN3CCC[C@H]4CN(c5c(F)cc6c(=O)c(C(=O)O)cn(C7CC7)c6c5OC)C[C@H]43)nn2)c2ccc(Br)cc21` gave an MIC [2] of 0.1 to 0.78 µg/mL (≈ 0.131 to 1.02 µM).
`CCO/N=C1/C(=O)N(CCn2cc(CN3CCC[C@H]4CN(c5c(F)cc6c(=O)c(C(=O)O)cn(C7CC7)c6c5OC)C[C@H]43)nn2)c2ccc(Br)cc21` was tested, and the MIC [2] was 0.1 to 0.78 µg/mL (≈ 0.129 to 1 µM).
In the case of `Cc1ccc2c(c1)/C(=N\NC(N)=S)C(=O)N2CCCN1CCN(c2cc3c(cc2F)c(=O)c(C(=O)O)cn3C2CC2)CC1`, the MIC [3] is reported as 0.1 to 64 µg/mL (≈ 0.165 to 106 µM).
Work on `COc1c(N2C[C@@H]3CCCN(Cc4cn(CCN5C(=O)/C(=N/O)c6cc(Br)ccc65)nn4)[C@@H]3C2)c(F)cc2c(=O)c(C(=O)O)cn(C3CC3)c12` yielded an MIC [2] of 0.1 to 0.78 µg/mL (≈ 0.133 to 1.04 µM).
Work on `CO/N=C1\C(=O)N(CCN2CCC[C@H]3CN(c4c(F)cc5c(=O)c(C(=O)O)cn(C6CC6)c5c4OC)C[C@H]32)c2ccccc21` yielded an MIC [1] of 0.39 to 16 µg/mL (≈ 0.646 to 26.5 µM).
With `COc1c(N2C[C@@H]3CCCN(CCN4C(=O)/C(=N\O)c5cc(F)ccc54)[C@@H]3C2)c(F)cc2c(=O)c(C(=O)O)cn(C3CC3)c12` the MIC [1] was 0.39 to 16 µg/mL (≈ 0.642 to 26.3 µM).
Compound `COc1c(N2C[C@@H]3CCCN(CN4C(=O)/C(=N\O)c5cc(F)ccc54)[C@@H]3C2)c(F)cc2c(=O)c(C(=O)O)cn(C3CC3)c12` has an MIC [1] of 0.39 to 16 µg/mL (≈ 0.657 to 27 µM).
For `CCO/N=C1\C(=O)N(CN2CCC[C@H]3CN(c4c(F)cc5c(=O)c(C(=O)O)cn(C6CC6)c5c4OC)C[C@H]32)c2ccccc21`, the MIC [1] was 0.39 to 16 µg/mL (≈ 0.646 to 26.5 µM).
For `Cc1ccc2c(c1)/C(=N\O)C(=O)N2CCCN1CCN(c2cc3c(cc2F)c(=O)c(C(=O)O)cn3C2CC2)CC1`, the MIC [3] was 0.1 to 64 µg/mL (≈ 0.183 to 117 µM).
With `COc1c(N2C[C@@H]3CCCN(CCN4C(=O)/C(=N\O)c5ccccc54)[C@@H]3C2)c(F)cc2c(=O)c(C(=O)O)cn(C3CC3)c12` the MIC [1] was 0.39 to 16 µg/mL (≈ 0.661 to 27.1 µM).
For `CO/N=C1/C(=O)N(CCCN2CCN(c3c(F)cc4c(=O)c(C(=O)O)cn(C5CC5)c4c3OC)CC2C)c2ccc(F)cc21` (centres undefined), the Ratio [4] was “>=4 - 512”, the Ratio [5] was “>=4 - 512” and the Ratio [6] was “>=4 - 512”. It also gave an MIC [2] of 0.25 µg/mL (≈ 0.41 µM).
`COc1c(N2C[C@@H]3CCCN(CN4C(=O)/C(=N\NC(N)=O)c5ccccc54)[C@@H]3C2)c(F)cc2c(=O)c(C(=O)O)cn(C3CC3)c12` gave an MIC [1] of 0.39 to 16 µg/mL (≈ 0.631 to 25.9 µM).
With `COc1c(N2C[C@@H]3CCCN(Cc4cn(CCN5C(=O)/C(=N/NC(N)=O)c6cc(Br)ccc65)nn4)[C@@H]3C2)c(F)cc2c(=O)c(C(=O)O)cn(C3CC3)c12` the MIC [2] was 0.1 to 0.78 µg/mL (≈ 0.126 to 0.985 µM).
With `NC(=O)N/N=C1/C(=O)N(CCCN2CCN(c3cc4c(cc3F)c(=O)c(C(=O)O)cn4C3CC3)CC2)c2ccccc21` the MIC [3] was 0.1 to 64 µg/mL (≈ 0.174 to 111 µM).
Work on `COc1c(N2CCNC(C)C2)c(F)cc2c(=O)c(C(=O)O)cn(C3CC3)c12` (centres undefined) [GATIFLOXACIN] yielded an MIC [2] of 1 µg/mL (≈ 2.66 µM).
In the case of `NNC(=O)c1ccncc1` [ISONIAZID], the MIC [2] is reported as > 128 µg/mL.
`COc1c(N2C[C@@H]3CCCN[C@@H]3C2)c(F)cc2c(=O)c(C(=O)O)cn(C3CC3)c12` [MOXIFLOXACIN] was tested, and the MIC [2] was 0.12 µg/mL (≈ 0.299 µM) and the MIC [1] was 0.1 to 1 µg/mL (≈ 0.249 to 2.49 µM).
In the case of `CO[C@H]1/C=C/O[C@@]2(C)Oc3c(C)c(O)c4c(O)c(c(/C=N/N5CCN(C)CC5)c(O)c4c3C2=O)NC(=O)/C(C)=C\C=C\[C@H](C)[C@H](O)[C@@H](C)[C@@H](O)[C@@H](C)[C@H](OC(C)=O)[C@@H]1C` [RIFAMPIN], the MIC [2] is reported as 32 to 64 µg/mL (≈ 38.9 to 77.8 µM).
